Laboratory results taken from PMC6099102, “Effect of the Nature of Donor Atoms on the Thermodynamic, Kinetic and Relaxation Properties of Mn(II) Complexes Formed With Some Trisubstituted 12-Membered Macrocyclic Ligands” (Frontiers in Chemistry, 2018).

Assays:
[1] = Stability and protonation constants and pMn of the Mn(II) complexes (pH-potentiometry and/or 1H relaxometry); format: physicochemical; conditions: I = 0.15 M NaCl, 25 °C; for pMn: calculated at pH = 7.4, cM = cL = 10^−5 M; for log KMLH: protonation constant of the Mn(II) complex
Procedure: The concentration of the ligand solutions was determined by pH-potentiometric titration in the presence and absence of an excess (5–10 fold) of MnCl2. For determining the protonation constants of the investigated ligands, pH-potentiometric titrations were made by means of 0.2 M standardized NaOH in 2 and 3 mM ligand solutions in the pH-range of 1.75–11.85. All equilibrium measurements were performed at a constant 0.15 M NaCl ionic strength at 25 °C. The protonation and the stability constants of the Mn(II) complexes were determined by pH-potentiometric titrations (DOTP, DO3A, PCTA, ODO3A, DO3P) while owing to the slow formation rates of Mn(II) complexes formed with amide type ligands, the stability constants of DOTAM, DOTMA, DO3AM^H, PC3AM^H, PC3AM^Gly, PC3AM^Pip complexes were determined by out-of-cell pH-potentiomertry in combination with ^1H relaxometry. The metal-to-ligand concentration ratio in the solutions was 1:1. For the calculation of protonation constants of the ligands and the log KMnL and log KMnLHi values of the complexes, mL–pH data pairs (50–180), obtained in the pH range of 1.75–11.85 or r1obs-pH data pairs (10–15 batch samples) obtained in the pH range of 2–4.5 were used (the samples were equilibrated for 4–7 days). The equilibrium constants characterizing the deprotonation that occurs at basic pH were determined from the data obtained via direct pH-potentiometric titrations performed on the pre-formed complexes.
The pH-potentiometric titrations were carried out with a Methrohm 888 Titrando titration workstation using a Metrohm-6.0233.100 combined electrode. The samples (6.00 mL) were thermostated at 25 °C. The samples were stirred and kept under inert gas (N2) to avoid the effect of CO2. KH-phthalate (pH = 4.005) and borax (pH = 9.177) buffers were used for the pH-calibration. The method proposed by Irving et al. was used for the calculation of H^+ concentrations from the measured pH values (Irving et al., [1967]). A 0.01 M HCl (I = 0.15 M set with NaCl) solution was titrated with standardized NaOH solution of known concentration (approx. 0.2 M). The correction factor obtained as difference of calculated pH and measured pH values was used to calculate the [H^+] in the samples. The ionic product of water was determined from the same titrations (HCl/NaOH) from the data collected in the pH range of 11.20–11.85.
The relaxometric data were collected using a Bruker Minispec MQ20 NMR relaxometer. […] A datapoint plotted on figures represents an average of 5–6 T1 measurements (Figures S3–S9 in Supplementary Material). The data were fitted by using the molar r1p relaxivity value of the MnCl2 ([…] at 0.49 T and 25 °C). The equilibrium constants were calculated using the PSEQUAD program (Zékány and Nagypál, [1985]).
In order to gain information on the thermodynamic stability of the Mn(II) complexes, samples containing the metal and ligand in 1 to 1 molar ratio were studied by pH potentiometry or ^1H-relaxometry and in some cases by a combination of the two methods. The titration data were fitted by assuming the existence of [M(L)] and some protonated species ([M(HiL)]) at lower pH values. In some cases to fit the data obtained at higher pH, the formation of ternary hydroxido complexes ([M(L)(OH)]) were also included in the equilibrium model. The stability constants (KML) and the various protonation forms (KMHiL) of ML metal chelates are defined by Equations (3)–(5). However, a comparison of the stabilities of different complexes solely on the basic of their stability constants might be misleading because of the differences in ligand basicities. […] The pMn value accounts for the effect of proton competition (ligand basicity and complex protonation) on the stability constant essentially offering the same information as the conditional stability constant. Higher pMn values indicate a higher chelate stability at specified conditions. […]

[2] = ref Rolla et al. ([2013]); cited from earlier work
[3] = stability constant of the Mn(II) complex
[4] = stability constant of the Mn(II) complex by 1H-relaxometry

pMn [1]	log KMLH [1]	log KML [1, 3]	log KML [1, 4]	log KMLOH ([1]; ternary hydroxido complex of Mn(II))	log KMHLH ([1]; second protonation constant of the Mn(II) complex)	log KMH2LH ([1]; third protonation constant of the Mn(II) complex)	Compound	r1p [2]
8.66	4.26 (2)	16.55 (4)					O=C(O)CN1CCNCCN(CC(=O)O)CCN(CC(=O)O)CC1 [DO3A]	1.30 mM⁻¹ s⁻¹
9.74	1.96(1)	16.83 (1)	16.64 (7)				O=C(O)CN1CCN(CC(=O)O)Cc2cccc(n2)CN(CC(=O)O)CC1 [PCTA]	
7.77		11.94(3)	11.78 (8)	10.90 (4)			NC(=O)CN1CCN(CC(N)=O)Cc2cccc(n2)CN(CC(N)=O)CC1 [PC3AM^H]	
8.86							O=C(CN1CCN(CC(=O)N2CCCCC2)Cc2cccc(n2)CN(CC(=O)N2CCCCC2)CC1)N1CCCCC1.[Mn+2] [[Mn(PC3AM^Pip)]^2+]	
6.43	8.06 (2)	17.45 (2)			7.05 (1)	5.31 (2)	O=P(O)(O)CN1CCNCCN(CP(=O)(O)O)CCN(CP(=O)(O)O)CC1 [DO3P]	
